# Source: patent US8999296B2, “Method of detecting bladder cancer” (Kochi University, priority 2008, dated 2015)
# Columns and labels:
# bladder cancer [1] = assay: Fluorescence diagnosis in bladder cancer patients grouped by disease stage (pTis, pTa, pT1, pT2, pT3), Example 2; type: in vivo, human; conditions: 50 bladder cancer patients, stages pTis, dosing as in Example 1
# Procedure: ALA was injected into the bladder or administered orally similarly to Example 1 to bladder cancer patients who had been grouped according to the disease stages based on the intramural invasion depth of the primary tumor: 6 cases of pTis (intraepithelial cancer), 27 cases of pTa (without invasion), 9 cases of pT1 (with invasion to submucosal connective tissue), 6 cases of pT2 (with muscle invasion), 2 cases of pT3 (with invasion to pericystic adipose tissue) (50 cases for total number of patients). […] This confirmed that oral administration is effective in a diagnosis method for bladder cancer at every disease stage.
# bladder cancer [2] = assay: Intraoperative photodynamic diagnosis of bladder cancer with ALA-HCl (video camera system and VLD-M1 fluorescence intensity), Example 1; type: in vivo, human; conditions: for Fluorescence intensity (relative intensity) by VLD-M1: irradiation at 405 nm, PpIX fluorescence at 635 nm, one subject
# Procedure: Intraoperative diagnosis using 5-aminolevulinic acid hydrochloride (ALA-HCl) was carried out for two subjects who are in the almost same progression stage of bladder cancer. The subjects were administered ALA-HCl respectively by bladder instillation and by oral intake. Bladder instillation was conducted on the day of operation by dissolving 1.5 g of ALA-HCl in 50 mL of a 8.4% sodium bicarbonate (sodium hydrogen carbonate: NaHCO3) to adjust pH (median pH of 8.0 (pH 7.8-8.2)), filtrating the dissolved ALA-HCl solution with a 0.22 μm filter, and then injecting this dissolved solution (50 mL) into the bladder of a subject. Retention time in the bladder was set for 120-150 min ([…]) and ALA was eliminated just prior to the operation. On the other hand, oral intake was carried out by dissolving ALA (maximum of 1 g) in 50 mL of a 5% dextrose solution to 20 mg/kg, and the ALA dissolved solution (50 mL) was orally administered to the other subject in the morning (4 hours before commencement of the operation) without giving breakfast. Diagnosis was conducted based on the diagnostic imaging and fluorescent intensity with the use of a video camera system: Endovision TELECAM SL/IPM-PPDSystem (KARL STORZ) and VLD-M1 (M&M). The video camera system was inserted via the urethra and the red light part was observed after irradiating a blue fluorescence at 380-440 nm. Further, VLD-M1 was inserted and fluorescence intensity (relative intensity) at the red light part was observed after irradiating a blue fluorescence at 405 nm.
# In addition, at 635 nm which is the […] for protoporphyrin IX (PpIX), it was confirmed as shown in Table 1 that the fluorescence intensity was higher in the case of oral intake than in the case of bladder instillation.
structure (smiles),measurement,setting,value
"Cl.NCC(=O)CCC(=O)O [ALA, 5-aminolevulinic acid hydrochloride]","Fluorescence, oral administration versus injection into the bladder (FIGS. 3-6)",bladder cancer [1],fluorescence was more intensive when ALA was orally administered than when injected into the bladder
same,Fluorescence intensity (relative intensity) by VLD-M1,bladder cancer [2]; bladder instillation of ALA (1.5 g ALA-HCl in 50 mL 8.4% NaHCO3),20153
same,Fluorescence intensity (relative intensity) by VLD-M1,"bladder cancer [2]; oral intake of ALA (20 mg/kg, 4 hours before operation)",48623
same,Identification of the site of bladder cancer by diagnostic imaging (FIGS. 1 and 2),"bladder cancer [2]; oral intake versus bladder instillation, irradiation at 380-440 nm, red light part observed",more remarkably identified in the case of oral intake than in the case of bladder instillation
